Results: ChEMBL document CHEMBL1201862, “PubChem BioAssay data set” (2004)
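Protocol summary: plate cells (96-well), add compound at 5 concentrations, incubate 48 h, interpolate endpoints linearly. Abbreviation: GI50, concentration required for 50% inhibition of growth.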 Calls of active or inactive are those of the source. Rule as the data show it: active = GI50 up to about 1.1 µM and inactive = higher.

Experiments:
Experiment in all cases: NCI anticancer screen, dose series, 48 h
CCRF-CEM = test system: CCRF-CEM
COLO 205 = test system: COLO 205
HOP-62 = test system: HOP-62
K562 = test system: K562
KM-20L2 = test system: KM-20L2
M14 = test system: M14
MOLT-4 = test system: MOLT-4
OVCAR-8 = test system: OVCAR-8
SF-295 = test system: SF-295
SK-MEL-5 = test system: SK-MEL-5
SNB-75 = test system: SNB-75
SW-620 = test system: SW-620
UO-31 = test system: UO-31
RXF 393 = test system: RXF 393
SK-MEL-2 = test system: SK-MEL-2
786-0 = test system: 786-0
BT-549 = test system: BT-549
DU-145 = test system: DU-145
MDA-N = test system: MDA-N
PC-3 = test system: PC-3

Measured: GI50

C/C(=C1/N=C(c2cc([N+](=O)[O-])ccc2Cl)N(C2=CC=C(Cl)CC2)C1=O)c1cc2ccccc2oc1=O
inactive: CCRF-CEM 40.3 µM | COLO 205 47.6 µM | HOP-62 31.5 µM | K562 > 100 µM | KM-20L2 18.7 µM | M14 23.9 µM | MOLT-4 54.6 µM | OVCAR-8 51.5 µM | SF-295 41.7 µM | SK-MEL-5 24.3 µM | SNB-75 32.4 µM | SW-620 36.5 µM | UO-31 21.8 µM

O=P1(Oc2ccc(Cl)cc2Cl)Oc2ccc3ccccc3c2-c2c(ccc3ccccc23)O1
inactive: CCRF-CEM 28 µM | COLO 205 46.5 µM | HOP-62 20.2 µM | K562 31.4 µM | KM-20L2 33.5 µM | MOLT-4 19.9 µM | OVCAR-8 40.1 µM | RXF 393 16 µM | SF-295 34.8 µM | SK-MEL-2 18.7 µM | SK-MEL-5 49.5 µM | SNB-75 31.5 µM | SW-620 32.4 µM | UO-31 20.4 µM

Cc1cccc(/N=C2\NC(=O)C(CC(=O)Nc3ccc(C)cc3C)S2)c1 (configuration not stated)
inactive: 786-0 > 100 µM | CCRF-CEM 92 µM | K562 65.8 µM | KM-20L2 97.7 µM | M14 > 100 µM | MOLT-4 40.4 µM | OVCAR-8 70.6 µM | RXF 393 > 100 µM | SF-295 61.9 µM | SK-MEL-2 > 100 µM | SK-MEL-5 94 µM | SNB-75 > 100 µM | SW-620 > 100 µM | UO-31 66.7 µM

COC(=O)C1=C(C)N(NC(=O)c2ccccc2)C2(O)CCCC(=O)C12C (configuration not stated)
inactive: COLO 205 > 100 µM | KM-20L2 > 100 µM | M14 > 100 µM | OVCAR-8 > 100 µM | RXF 393 > 100 µM | SF-295 > 100 µM | SK-MEL-2 > 100 µM | SK-MEL-5 > 100 µM | SNB-75 63.5 µM | SW-620 > 100 µM | UO-31 > 100 µM

O=C1CCCn2c3ccccc3c3ccnc1c32
inactive: CCRF-CEM 27.8 µM | COLO 205 41.8 µM | HOP-62 43.1 µM | K562 40.5 µM | KM-20L2 51.3 µM | MOLT-4 30.8 µM | OVCAR-8 34.6 µM | RXF 393 24.8 µM | SF-295 38.9 µM | SK-MEL-2 47.1 µM | SK-MEL-5 34 µM | SNB-75 34.3 µM | SW-620 41.1 µM | UO-31 35 µM

CC1=C2C(O)C(C(C)CO)C(O)CC2(C)C(O)CC1 (configuration not stated)
inactive: 786-0 > 100 µM | CCRF-CEM > 100 µM | COLO 205 > 100 µM | HOP-62 > 100 µM | KM-20L2 > 100 µM | M14 > 100 µM | MOLT-4 > 100 µM | OVCAR-8 > 100 µM | RXF 393 > 100 µM | SF-295 > 100 µM | SK-MEL-5 > 100 µM | SNB-75 > 100 µM | SW-620 > 100 µM | UO-31 > 100 µM

NC(CO)c1ccccc1 (configuration not stated)
inactive: CCRF-CEM 8.71 µM | HOP-62 > 100 µM | KM-20L2 > 100 µM | M14 > 100 µM | MOLT-4 > 100 µM | OVCAR-8 > 100 µM | RXF 393 > 100 µM | SF-295 > 100 µM | SK-MEL-2 > 100 µM | SK-MEL-5 > 100 µM | SNB-75 > 100 µM | SW-620 > 100 µM | UO-31 > 100 µM

CC(=O)OCC1OC(Nc2nc(O)n(C)c(=O)c2-c2csc(N)n2)C(OC(C)=O)C(OC(C)=O)C1OC(C)=O (configuration not stated)
inactive: 786-0 > 100 µM | CCRF-CEM 67.6 µM | COLO 205 > 100 µM | HOP-62 > 100 µM | K562 > 100 µM | KM-20L2 > 100 µM | M14 > 100 µM | MOLT-4 > 100 µM | OVCAR-8 > 100 µM | SF-295 > 100 µM | SK-MEL-2 > 100 µM | SK-MEL-5 > 100 µM | SNB-75 > 100 µM | SW-620 > 100 µM | UO-31 > 100 µM

CC(NC(=O)NC(C)(C)C)NC(=O)C(N)CC(=O)O (configuration not stated)
inactive: 786-0 > 100 µM | BT-549 > 100 µM | CCRF-CEM > 100 µM | COLO 205 > 100 µM | DU-145 > 100 µM | HOP-62 > 100 µM | K562 > 100 µM | M14 > 100 µM | MDA-N > 100 µM | MOLT-4 > 100 µM | OVCAR-8 > 100 µM | PC-3 > 100 µM | RXF 393 > 100 µM | SF-295 > 100 µM | SK-MEL-2 > 100 µM | SK-MEL-5 > 100 µM | SNB-75 > 100 µM | SW-620 > 100 µM | UO-31 > 100 µM

COc1ccc(/C(=N\NC(=O)NN)C(c2ccc(OC)cc2)C2(O)C(=O)Nc3c(Cl)cc(Cl)cc32)cc1 (configuration not stated)
inactive: 786-0 61.4 µM | CCRF-CEM 13.8 µM | COLO 205 > 100 µM | HOP-62 > 100 µM | KM-20L2 > 100 µM | M14 > 100 µM | MOLT-4 5.93 µM | OVCAR-8 > 100 µM | RXF 393 > 100 µM | SF-295 > 100 µM | SK-MEL-2 > 100 µM | SK-MEL-5 > 100 µM | SNB-75 > 100 µM | SW-620 > 100 µM | UO-31 > 100 µM
